From publication PMC10141580, “Cyclic Dichalcogenides Extend the Reach of Bioreductive Prodrugs to Harness Thiol/Disulfide Oxidoreductases: Applications to seco-Duocarmycins Targeting the Thioredoxin System” (ACS Central Science, 2023)
Where two headings read alike, the source gives them in different places.

Test system: panel of 140 standard cancer cell lines
Assay: ProliFiler-140 cancer cell line screen (CellTiterGlo, 72 h)
Type: cell-based
Conditions: read-out: IC50 [M] (ProliFiler-140)
Procedure: Incubations were performed for 72 h before automated viability readout with CellTiterGlo (Figure 8).
End of Figure S11 (part 5 of 5): ProliFiler-140 cancer cell line screening for cytotoxicity of the prodrugs.
8-data-point dose response curves from CellTiter-Glo® viability readout.
ProliFiler-140 cell line panel part V

## COc1cccc2c1C(=O)c1c(O)c3c(c(O)c1C2=O)C[C@@](O)(C(=O)CO)C[C@@H]3O[C@H]1C[C@H](N)[C@H](O)[C@H](C)O1 [doxorubicin, reference compound]
MCAS (Ovary), listed as Dox
  IC50: 1.13e-07 M
MCAS (Ovary)
  IC50: 1.1e-07 M
MDA MB 435 (Skin), listed as Dox
  IC50: 4.83e-07 M
MDA-MB-468 (Breast), listed as Dox
  IC50: 4.71e-08 M
MEC-1 (Blood), listed as Dox
  IC50: 7.33e-08 M
MKN-1 (Stomach), listed as Dox
  IC50: 5.25e-08 M
MOLM-13 (Blood), listed as Dox
  IC50: 2.12e-08 M
MV4-11 (Blood), listed as Dox
  IC50: 4.26e-09 M
Mia PaCA 2 (Pancreas), listed as Dox
  IC50: 7.4e-08 M
NCI-H82 (Lung), listed as Dox
  IC50: 6.24e-07 M
NCI-H292 (Lung), listed as Dox
  IC50: 7.17e-08 M
NCI-H838 (Lung), listed as Dox
  IC50: 1.51e-07 M
NCI-H1563 (Lung), listed as Dox
  IC50: 5.43e-07 M
NCI-H1573 (Lung), listed as Dox
  IC50: 2.97e-06 M
NCI-H1703 (Lung), listed as Dox
  IC50: 9.24e-08 M
NCI-H1838 (Lung), listed as Dox
  IC50: 2.52e-07 M
NCI-H2110 (Lung), listed as Dox
  IC50: 3.55e-08 M
NCI-H2110, NCI-H2110 (Lung)
  IC50: 3.6e-08 M
NCI-H2286 (Lung), listed as Dox
  IC50: 4.39e-08 M
OCI-AML5 (Blood), listed as Dox
  IC50: 3.09e-08 M
OCI-LY19 (Blood), listed as Dox
  IC50: 5.5e-09 M
OPM-2 (Blood), listed as Dox
  IC50: 2.4e-07 M
OV56, OV56 (Ovary)
  IC50: 2.02e-07 M
OVCAR-3 (Ovary), listed as Dox
  IC50: 3.73e-07 M
OVK18 (Ovary), listed as Dox
  IC50: 3.4e-08 M
OVK18, OVK18 (Ovary)
  IC50: 3.42e-08 M
P31/FUJ (Blood), listed as Dox
  IC50: 1.02e-07 M
PANC-1 (Pancreas), listed as Dox
  IC50: 8.01e-07 M
PC3 (Prostate), listed as Dox
  IC50: 7.4e-07 M
PC3 (Prostate)
  IC50: 7.38e-07 M
PC-9 (Lung), listed as Dox
  IC50: 1.92e-07 M
PC-9 (Lung)
  IC50: 1.9e-07 M
RERF-LC-Ad2, RERF-LC-Ad2 (Lung)
  IC50: 4.6e-07 M
RERF-LC-MS (Lung), listed as Dox
  IC50: 1.7e-07 M
RERF-LC-MS (Lung)
  IC50: 1.74e-07 M
RKO (Colon), listed as Dox
  IC50: 9.9e-08 M
RKO (Colon)
  IC50: 9.86e-08 M
RPMI 8226 (Blood), listed as Dox
  IC50: 8.8e-08 M
SCH (Stomach), listed as Dox
  IC50: 1.38e-07 M
SCH (Stomach)
  IC50: 1.4e-07 M
SK-BR-3 (Breast), listed as Dox
  IC50: 1.28e-07 M
SK-LU-1 (Lung), listed as Dox
  IC50: 2.67e-07 M
SK-MEL-3 (Skin), listed as Dox
  IC50: 5.12e-07 M
SK-N-FI (Brain), listed as Dox
  IC50: 1.4e-06 M
SK-N-MC (Brain), listed as Dox
  IC50: 1.47e-08 M
SK-N-SH (Brain), listed as Dox
  IC50: 9.82e-08 M
SK-OV3 (Ovary), listed as Dox
  IC50: 1.8e-07 M
SNU-1 (Stomach), listed as Dox
  IC50: 5.88e-08 M
SNU-216, SNU-216 (Stomach)
  IC50: 3.9e-07 M
SNU-840, SNU840 (Ovary)
  IC50: 1.33e-07 M
SU-DHL-5 (Blood), listed as Dox
  IC50: 9.15e-09 M
SW-1783 (Brain), listed as Dox
  IC50: 3e-07 M
T84 (Colon), listed as Dox
  IC50: 1.4e-06 M
T84 (Colon)
  IC50: 1.35e-06 M
T-47D (Breast), listed as Dox
  IC50: 4.35e-07 M
U87MG (Brain), listed as Dox
  IC50: 1.62e-07 M
U118MG (Brain), listed as Dox
  IC50: 2.6e-07 M
U251MG (Brain), listed as Dox
  IC50: 7.84e-07 M
